In paper PMC12693701, “Glucosinolate-Derived Metabolites from Barbarea vulgaris (Brassicaceae): Evaluation of Antimicrobial, Antioxidant, and Anti-Inflammatory Potentials” (Molecules, 2025):
≈ marks a conversion by molar mass, not a printed value.

What was measured:
[1] = tested on: P. mirabilis; assay: Microdilution MIC/MMC with resazurin; format: cell-based, Proteus mirabilis; conditions: P. mirabilis, compounds 1–8; for MIC: Proteus mirabilis, read-out: MIC
Method in brief: (§1)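 Twofold broth microdilution spanned 5 to 0.039 mg/mL from a 1% DMSO working solution, in Mueller–Hinton broth for bacteria (24 h, 37 °C) and Sabouraud broth for A. flavus (72 h, 28 °C). MIC was the lowest concentration preventing resazurin blue-to-pink change, or visible mycelial growth for the mold.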

[2] = tested on: F. solani ATCC 11712; assay: Microdilution MIC/MMC; format: cell-based, Fusarium solani; conditions: F. solani ATCC 11712, compounds 1–8; for MIC: Fusarium solani, ATCC11712, read-out: MIC
[3] = tested on: A. flavus ATCC 9170; assay: Microdilution MIC/MMC; format: cell-based, Aspergillus flavus; conditions: A. flavus ATCC 9170, compounds 1–8; for MIC: Aspergillus flavus, ATCC9170, read-out: MIC
Method in brief: as §1

[4] = tested on: S. enterica; assay: Microdilution MIC/MMC with resazurin; format: cell-based, Salmonella enterica; conditions: compounds 1–8; for MIC: Salmonella enterica
Method in brief: as §1

[5] = tested on: T. viride ATCC 13233; assay: Microdilution MIC/MMC; format: cell-based, Trichoderma viride; conditions: T. viride ATCC 13233, compounds 1–8; for MIC: Trichoderma viride, ATCC13233, read-out: MIC
[6] = tested on: B. subtilis ATCC 6633; assay: Microdilution MIC/MMC with resazurin; format: cell-based, Bacillus subtilis; conditions: B. subtilis ATCC 6633, compounds 1–8; for MIC: Bacillus subtilis, ATCC6633, read-out: MIC
Method in brief: as §1

[7] = tested on: B. cereus; assay: Microdilution MIC/MMC with resazurin; format: cell-based, Bacillus cereus; conditions: B. cereus, compounds 1–8; for MIC: Bacillus cereus, read-out: MIC
Method in brief: as §1

[8] = tested on: S. aureus; assay: Microdilution MIC/MMC with resazurin; format: cell-based, Staphylococcus aureus; conditions: S. aureus isolate, compounds 1–8; for MIC: Staphylococcus aureus, read-out: MIC
Method in brief: as §1

[9] = tested on: S. aureus ATCC 25923; assay: Microdilution MIC/MMC with resazurin; format: cell-based, Staphylococcus aureus; conditions: S. aureus ATCC 25923, compounds 1–8; for MIC: Staphylococcus aureus, ATCC25923, read-out: MIC
Method in brief: as §1

[10] = tested on: E. coli ATCC 25922; assay: Microdilution MIC/MMC with resazurin; format: cell-based, Escherichia coli; conditions: E. coli ATCC 25922, compounds 1–8; for MIC: Escherichia coli, ATCC25922, read-out: MIC
Method in brief: as §1

[11] = tested on: E. coli; assay: Microdilution MIC/MMC with resazurin; format: cell-based, Escherichia coli; conditions: E. coli isolate, compounds 1–8; for MIC: Escherichia coli, read-out: MIC
Method in brief: as §1

[12] = tested on: K. pneumoniae; assay: Microdilution MIC/MMC with resazurin; format: cell-based, Klebsiella pneumoniae; conditions: K. pneumoniae, compounds 1–8; for MIC: Klebsiella pneumoniae, read-out: MIC
Method in brief: as §1

[13] = tested on: B. pumilus NCTC 8241; assay: Microdilution MIC/MMC with resazurin; format: cell-based, Bacillus pumilus; conditions: B. pumilus NCTC 8241, compounds 1–8; for MIC: Bacillus pumilus, NCTC8241, read-out: MIC
Method in brief: as §1

[14] = tested on: C. albicans ATCC 10231; assay: Microdilution MIC/MMC with resazurin; format: cell-based, Candida albicans; conditions: C. albicans ATCC 10231, compounds 1–8; for MIC: Candida albicans, ATCC10231, read-out: MIC
[15] = DPPH radical scavenging assay; conditions: mean ± SD
Method in brief: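 Compounds (DMSO stocks diluted in methanol) mixed with equal volume of 50 µM DPPH in methanol, final compound 25, 50 and 100 µM. Incubated 20–60 min in the dark at room temperature; absorbance at 517 nm against methanol blank, in triplicate.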

SMILES | MMC [1] | MIC [1] | MMC [2] | MIC [2] | MMC [3] | MIC [3] | MIC [4] | MMC [4] | MMC [5] | MIC [5] | MMC [6] | MIC [6] | MMC [7] | MIC [7] | MMC [8] | MIC [8] | MMC [9] | MIC [9] | MMC [10] | MIC [10] | further results
CSC(=S)NCCc1ccccc1 [Compound 1, Methyl phenethylcarbamodithioate] | 5 mg/mL | 5000 µg/mL (≈ 23.7 mM) | 1.25 mg/mL | 1250 µg/mL (≈ 5.91 mM) | 2.5 mg/mL | 1250 µg/mL (≈ 5.91 mM) | 5000 µg/mL (≈ 23.7 mM) | 5 mg/mL | 1.25 mg/mL | 625 µg/mL (≈ 2.96 mM) | >5 mg/mL | 2500 µg/mL (≈ 11.8 mM) | 5 mg/mL | 5000 µg/mL (≈ 23.7 mM) | 5 mg/mL | 5000 µg/mL (≈ 23.7 mM) | 5 mg/mL | 5000 µg/mL (≈ 23.7 mM) | 1.25 mg/mL | 1250 µg/mL (≈ 5.91 mM) | MMC [11]: 5 mg/mL; MIC [11]: 2500 µg/mL (≈ 11.8 mM); MMC [12]: 5 mg/mL; MIC [12]: 5000 µg/mL (≈ 23.7 mM); MMC [13]: 2.5 mg/mL; MIC [13]: 1250 µg/mL (≈ 5.91 mM); MMC [14]: >5 mg/mL; MIC [14]: 1250 µg/mL (≈ 5.91 mM); DPPH Scavenging Ability ([15]; 25 µM, 20 min): 1.6 ± 1.2%; DPPH Scavenging Ability ([15]; 25 µM, 60 min): 1.8 ± 1.5%; DPPH Scavenging Ability ([15]; 50 µM, 20 min): 2.5 ± 1.1%; DPPH Scavenging Ability ([15]; 50 µM, 60 min): 2.4 ± 1.4%; DPPH Scavenging Ability ([15]; 100 µM, 20 min): 2.6 ± 1.2%; DPPH Scavenging Ability ([15]; 100 µM, 60 min): 2.9 ± 1.7%
S=C1NC[C@H](c2ccccc2)O1 [Compound 5, (S)-5-phenyl-1,3-oxazolidine-2-thione] | 5 mg/mL | 5000 µg/mL (≈ 27.9 mM) | >5 mg/mL | 5000 µg/mL (≈ 27.9 mM) | >5 mg/mL | > 5000 µg/mL | 5000 µg/mL (≈ 27.9 mM) | >5 mg/mL | 5 mg/mL | 5000 µg/mL (≈ 27.9 mM) | >5 mg/mL | > 5000 µg/mL | >5 mg/mL | > 5000 µg/mL | >5 mg/mL | > 5000 µg/mL | >5 mg/mL | 5000 µg/mL (≈ 27.9 mM) | 5 mg/mL | 5000 µg/mL (≈ 27.9 mM) | MMC [11]: 5 mg/mL; MIC [11]: 5000 µg/mL (≈ 27.9 mM); MMC [12]: 5 mg/mL; MIC [12]: 5000 µg/mL (≈ 27.9 mM); MMC [13]: 5 mg/mL; MIC [13]: 2500 µg/mL (≈ 13.9 mM); MMC [14]: >5 mg/mL; MIC [14]: 5000 µg/mL (≈ 27.9 mM); DPPH Scavenging Ability ([15]; 25 µM, 20 min): 7.0 ± 0.9%; DPPH Scavenging Ability ([15]; 25 µM, 60 min): 8.4 ± 0.5%; DPPH Scavenging Ability ([15]; 50 µM, 20 min): 14.8 ± 0.7%; DPPH Scavenging Ability ([15]; 50 µM, 60 min): 16.4 ± 0.4%; DPPH Scavenging Ability ([15]; 100 µM, 20 min): 21.6 ± 1.2%; DPPH Scavenging Ability ([15]; 100 µM, 60 min): 22.4 ± 0.7%
O=C1NCC(c2ccccc2)S1 (stereo not drawn) [Compound 6, 5-phenyl-1,3-thiazolidin-2-one] | >5 mg/mL | > 5000 µg/mL | >5 mg/mL | > 5000 µg/mL | >5 mg/mL | > 5000 µg/mL | > 5000 µg/mL | >5 mg/mL | >5 mg/mL | > 5000 µg/mL | >5 mg/mL | > 5000 µg/mL | >5 mg/mL | > 5000 µg/mL | >5 mg/mL | > 5000 µg/mL | >5 mg/mL | > 5000 µg/mL | >5 mg/mL | > 5000 µg/mL | MMC [11]: >5 mg/mL; MIC [11]: > 5000 µg/mL; MMC [12]: >5 mg/mL; MIC [12]: > 5000 µg/mL; MMC [13]: >5 mg/mL; MIC [13]: > 5000 µg/mL; MMC [14]: >5 mg/mL; MIC [14]: > 5000 µg/mL; DPPH Scavenging Ability ([15]; 25 µM, 20 min): 3.1 ± 0.6%; DPPH Scavenging Ability ([15]; 25 µM, 60 min): 3.0 ± 0.7%; DPPH Scavenging Ability ([15]; 50 µM, 20 min): 4.2 ± 0.8%; DPPH Scavenging Ability ([15]; 50 µM, 60 min): 4.6 ± 0.6%; DPPH Scavenging Ability ([15]; 100 µM, 20 min): 5.9 ± 0.9%; DPPH Scavenging Ability ([15]; 100 µM, 60 min): 5.8 ± 1.4%
